Measured values taken from patent US20220105150A1, “AMPHIPATHIC ALPHA-HELICAL ANTIMICROBIAL PEPTIDES TREAT INFECTIONS BY GRAM-NEGATIVE PATHOGENS” (priority 2019, published 2022).
≈ marks a conversion by molar mass, not a printed value. Read-outs that look alike come from different tables or passages of the source. Square brackets hold non-standard residues; d marks the D form. Peptide text beside a SMILES is read from it. Dap = NC[C@H](N)C(=O)O

Assays:
[1] = tested on: Acinetobacter baumannii strains resistant to Polymyxin B and Colistin; conditions: strains resistant to Polymyxin B and Colistin, 24 h
Source text: The coupling procedure used 5 equivalents of Fmoc-D-amino acid or Fmoc-L-amino acid and HCTU (O-(1H-6-chlorobenzotriazole-1-yl)-1,1,3,3-tetramethyluronium hexafluorophosphate) and 6-Cl-HOBt (1-hydroxy-6-chloro-benztriazole) at 4.5 equivalents in DMF (Fisher Scientific, Denver, Colo.) and N-diisopropylethylamine (DIPEA) 10 equivalents (Oakwood Products, Inc., Estill, S.C.) in N-methyl-2-pyrrolidinone (NMP) (Fisher Scientific, Denver, Colo.) with the first and second couplings at room temperature for 30 min each. The deprotection procedure (removal of Fmoc protecting group) was carried out by treatment of the resin with 0.1 M HOBt (1-hydroxybenzotriazole) in DMF with 20% piperidine for 30 min. […] The resin was removed by filtration and peptide was precipitated with ice-cooled ethyl ether on ice for 15 min. Ether was decanted, the peptide was washed twice with ether and redissolved in acetonitrile/water (1:1, with 0.2% TFA) and the solution lyophilized to obtain the crude peptide. • Analytical and Preparative Purification by Reversed-Phase Chromatography: Analytical RP-HPLC: Column, Luna C18 (2), 250×4.6 mm I.D., 5 μm particle size, 100 Å pore size from Phenomenex (Torrance, Calif.). Run conditions: linear AB gradient (1% acetonitrile/min, starting from 2% acetonitrile) at a flow-rate of 1 ml/min, where eluent A is 0.2% aq. TFA and eluent B is 0.18% TFA in acetonitrile; temperature, 30° C. Preparative RP-HPLC: Peptides were dissolved in 0.2% aq. TFA containing 2% acetonitrile to a final concentration of 10 mg/ml. Following filtration through a 0.45 μm Millipore filter and subsequently through a 0.22 μm filter, the peptide solutions were loaded onto the column via multiple 20-ml injections into a 20-ml injection loop at a flow-rate of 10 ml/min. Column, Luna C18 (2), 250×30 mm I.D., 5 um particle size, 100 Å pore size from Phenomenex. Run conditions: 2% acetonitrile/min gradient up to an acetonitrile concentration 10% below that required to elute the peptide during analytical RP-HPLC, then shallow gradient elution (0.05% or 0.1% acetonitrile/min depending on the complexity of impurities near the product of interest on the analytical run of the crude peptide) at a flow-rate of 10 ml/min (same eluents as shown above for analytical RP-HPLC); at room temperature. • Temperature Profiling of Peptides on Reversed-phase HPLC to Measure Dimerization and Oligomerization: Purified peptides were analyzed on an Agilent 1200 series liquid chromatograph for temperature profiling using a Zorbax 300 SB-C8 column (150 mm×2.1 mm I.D.; 5 μm particle size, 300 Å pore size) from Agilent Technologies. […] Temperature profiling was carried out on peptide mixtures run at each temperature in 2° C. increments from 5° C. to 41° C. and 10° C. increments from 5° C. to 75° C. Twenty minutes was allowed between runs for temperature equilibration. • Characterization of Helical Structure: The mean residue molar ellipticities of peptides were determined by circular dichroism (CD) spectroscopy, using a Jasco J-815 spectropolarimeter (Jasco Inc. Easton, Md., USA) at 5° C. under KP buffer (50 mM NaH2PO4/Na2HPO4/100 mM KCl, pH 7.0) as well as in the presence of an α-helix inducing solvent, 2,2,2-trifluoroethanol, TFE, (50 mM NaH2PO4/Na2HPO4/100 mM KCl, pH 7.0 buffer/50% TFE). A 10-fold dilution of an approximately 500 μM stock solution of the peptide analogs was loaded into a 0.1 cm quartz cell and its ellipticity scanned from 195 to 250 nm.

[2] = tested on: Acinetobacter baumannii isolates resistant to classical antibiotics; format: cell-based; conditions: isolates resistant to classical antibiotics
Source text: Thus, shortening the number of carbon atoms between the side-chain amino group and the α-carbon atom from four (Lys) to one (diaminopropionic acid) had very little effect on antibacterial activity (Table 2). We also determined the antibacterial activity of our five AMPs against 20 additional Acinetobacter baumannii isolates from four continents, 12 different countries and 17 different cities that were resistant to 18 different antibiotics. […] Thus, it is very clear that changing the type of positively-charged residue on the polar face of these AMPs had very little effect on the antibacterial activities.

[3] = tested on: A. baumannii strains from JMI Laboratories; conditions: 20 A. baumannii isolates from JMI Laboratories; cited from earlier work
[4] = tested on: Acinetobacter baumannii strains resistant to Polymyxin B and Colistin; conditions: results provided by MERCK, cited from earlier work

Compound | MIC MB9941 [1] [µM] | MIC MB9949 [1] [µM] | MIC MB9951 [1] [µM] | MIC MB9952 [1] [µM] | MIC MB9953 [1] [µM] | MIC MB9955 [1] [µM] | MIC MB9963 [1] [µM] | number of resistant isolates out of the number of isolates screened [3] | further results
CC(=O)N[C@H](CCCCN)C(=O)N[C@H](CC(C)C)C(=O)N[C@H](CCCCN)C(=O)N[C@H](CO)C(=O)N[C@H](CC(C)C)C(=O)N[C@H](CC(C)C)C(=O)N[C@H](CCCCN)C(=O)N[C@@H](C(=O)N[C@H](CC(C)C)C(=O)N[C@H](CO)C(=O)N[C@H](CCCCN)C(=O)N[C@H](C)C(=O)N[C@H](CCCCN)C(=O)N[C@H](C)C(=O)N[C@H](C)C(=O)N[C@H](CCCCN)C(=O)N[C@H](CC(C)C)C(=O)N[C@H](CCCCN)C(=O)N[C@@H](C(=O)N[C@H](CC(C)C)C(=O)N[C@H](CC(C)C)C(=O)N[C@H](CCCCN)C(=O)N[C@H](C)C(=O)N[C@H](CC(C)C)C(=O)N[C@H](CO)C(=O)N[C@H](CCCCN)C(N)=O)[C@H](C)O)[C@H](C)O [D84(Lys^1-6Lys-1), Ac-KL(Lys)SLL(Lys)TLS(Lys)AKAAKL(Lys)TLL(Lys)ALS(Lys)-amide] | 0.3 (≈ 0.86 µg/mL) | 0.7 (≈ 2.01 µg/mL) | 0.3 (≈ 0.86 µg/mL) | 0.7 (≈ 2.01 µg/mL) | 0.7 (≈ 2.01 µg/mL) | 0.3 (≈ 0.86 µg/mL) | 0.7 (≈ 2.01 µg/mL) | – | MIC 101887 [2]: 0.7 µM (≈ 2.01 µg/mL); MIC 961997 [2]: 1.4 µM (≈ 4.01 µg/mL); MIC 963618 [2]: 0.7 µM (≈ 2.01 µg/mL); MIC 964304 [2]: 1.4 µM (≈ 4.01 µg/mL); MIC 977751 [2]: 0.3 µM (≈ 0.86 µg/mL); MIC 981653 [2]: 0.7 µM (≈ 2.01 µg/mL); MIC 1002956 [2]: 0.3 µM (≈ 0.86 µg/mL); MIC 1007660 [2]: 0.3 µM (≈ 0.86 µg/mL); MIC 1010282 [2]: 0.7 µM (≈ 2.01 µg/mL); MIC 1035166 [2]: 0.7 µM (≈ 2.01 µg/mL)
C[C@H]1[C@H](NC(=O)/C(=N\OC(C)(C)C(=O)O)c2csc(N)n2)C(=O)N1S(=O)(=O)O [Aztreonam] | – | – | – | – | – | – | – | 20/20 | –
Piperacillin-tazobactam | – | – | – | – | – | – | – | 19/20 | –
Polymyxin B | – | – | – | – | – | – | – | – | MICGM ([4]; geometric mean over seven strains): >25 µM; MIC MB9941 ([4]; strain MB9941): >25 µM; MIC MB9949 ([4]; strain MB9949): >25 µM; MIC MB9951 ([4]; strain MB9951): >25 µM; MIC MB9952 ([4]; strain MB9952): >25 µM; MIC MB9953 ([4]; strain MB9953): >25 µM; MIC MB9955 ([4]; strain MB9955): >25 µM; MIC MB9963 ([4]; strain MB9963): >25 µM
Ampicillin-sulbactam | – | – | – | – | – | – | – | 17/20 | –
NC[C@H]1O[C@H](O[C@H]2[C@H](O)[C@@H](O[C@H]3O[C@H](CO)[C@@H](O)[C@H](N)[C@H]3O)[C@H](N)C[C@@H]2N)[C@H](N)C[C@@H]1O [Tobramycin] | – | – | – | – | – | – | – | 18/20 | –
CC(=O)N[C@H](CCCCN)C(=O)N[C@H](CC(C)C)C(=O)N[C@H](CCCCN)C(=O)N[C@H](CO)C(=O)N[C@H](CC(C)C)C(=O)N[C@H](CC(C)C)C(=O)N[C@H](CCCCN)C(=O)N[C@@H](C(=O)N[C@H](CC(C)C)C(=O)N[C@H](CO)C(=O)N[C@H](CCCCN)C(=O)N[C@H](C)C(=O)N[C@H](CCCCN)C(=O)N[C@H](C)C(=O)N[C@H](C)C(=O)N[C@H](CCCCN)C(=O)N[C@H](CC(C)C)C(=O)N[C@H](CCCCN)C(=O)N[C@@H](C(=O)N[C@H](CC(C)C)C(=O)N[C@H](CC(C)C)C(=O)N[C@H](CCCCN)C(=O)N[C@H](C)C(=O)N[C@H](CC(C)C)C(=O)N[C@H](CO)C(=O)N[C@H](CO)C(N)=O)[C@H](C)O)[C@H](C)O [D101(Lys^1Ser^26-5Lys-1), Ac-KL(Lys)SLL(Lys)TLS(Lys)AKAAKL(Lys)TLL(Lys)ALS(Ser)-amide] | 0.7 (≈ 1.98 µg/mL) | 0.7 (≈ 1.98 µg/mL) | 0.7 (≈ 1.98 µg/mL) | 0.7 (≈ 1.98 µg/mL) | 1.5 (≈ 4.24 µg/mL) | 0.7 (≈ 1.98 µg/mL) | 0.7 (≈ 1.98 µg/mL) | – | MIC 101887 [2]: 1.4 µM (≈ 3.95 µg/mL); MIC 961997 [2]: 1.4 µM (≈ 3.95 µg/mL); MIC 963618 [2]: 0.7 µM (≈ 1.98 µg/mL); MIC 964304 [2]: 1.4 µM (≈ 3.95 µg/mL); MIC 977751 [2]: 0.7 µM (≈ 1.98 µg/mL); MIC 981653 [2]: 0.7 µM (≈ 1.98 µg/mL); MIC 1002956 [2]: 0.7 µM (≈ 1.98 µg/mL); MIC 1007660 [2]: 0.7 µM (≈ 1.98 µg/mL); MIC 1010282 [2]: 1.4 µM (≈ 3.95 µg/mL); MIC 1035166 [2]: 1.4 µM (≈ 3.95 µg/mL)
CC(=O)N[C@H](CCCCN)C(=O)N[C@H](CC(C)C)C(=O)N[C@H](CCCNC(=N)N)C(=O)N[C@H](CO)C(=O)N[C@H](CC(C)C)C(=O)N[C@H](CC(C)C)C(=O)N[C@H](CCCNC(=N)N)C(=O)N[C@@H](C(=O)N[C@H](CC(C)C)C(=O)N[C@H](CO)C(=O)N[C@H](CCCNC(=N)N)C(=O)N[C@H](C)C(=O)N[C@H](CCCCN)C(=O)N[C@H](C)C(=O)N[C@H](C)C(=O)N[C@H](CCCCN)C(=O)N[C@H](CC(C)C)C(=O)N[C@H](CCCNC(=N)N)C(=O)N[C@@H](C(=O)N[C@H](CC(C)C)C(=O)N[C@H](CC(C)C)C(=O)N[C@H](CCCNC(=N)N)C(=O)N[C@H](C)C(=O)N[C@H](CC(C)C)C(=O)N[C@H](CO)C(=O)N[C@H](CCCNC(=N)N)C(N)=O)[C@H](C)O)[C@H](C)O [D87(Lys^1-6Arg-1), Ac-KL(Arg)SLL(Arg)TLS(Arg)AKAAKL(Arg)TLL(Arg)ALS(Arg)-amide] | 1.3 (≈ 3.94 µg/mL) | 1.3 (≈ 3.94 µg/mL) | 0.7 (≈ 2.12 µg/mL) | 0.7 (≈ 2.12 µg/mL) | 0.7 (≈ 2.12 µg/mL) | 0.7 (≈ 2.12 µg/mL) | 0.7 (≈ 2.12 µg/mL) | – | –
CC(=O)N[C@H](CCCCN)C(=O)N[C@H](CC(C)C)C(=O)N[C@@H](CN)C(=O)N[C@H](CO)C(=O)N[C@H](CC(C)C)C(=O)N[C@H](CC(C)C)C(=O)N[C@@H](CN)C(=O)N[C@@H](C(=O)N[C@H](CC(C)C)C(=O)N[C@H](CO)C(=O)N[C@H](C)C(=O)N[C@H](C)C(=O)N[C@H](CCCCN)C(=O)N[C@@H](CN)C(=O)N[C@@H](CN)C(=O)N[C@H](CCCCN)C(=O)N[C@H](CC(C)C)C(=O)N[C@H](C)C(=O)N[C@@H](C(=O)N[C@H](CC(C)C)C(=O)N[C@H](CC(C)C)C(=O)N[C@@H](CN)C(=O)N[C@H](C)C(=O)N[C@H](CC(C)C)C(=O)N[C@H](CO)C(=O)N[C@@H](CN)C(N)=O)[C@H](C)O)[C@H](C)O [D106(Lys^1-6 Dap-2), Ac-KL(L-Dap)SLL(L-Dap)TLSAAK(L-Dap)(L-Dap)KLATLL(L-Dap)ALS(L-Dap)-amide] (Ac-[dK][dL][Dap][dS][dL][dL][Dap][dT][dL][dS][dA][dA][dK][Dap][Dap][dK][dL][dA][dT][dL][dL][Dap][dA][dL][dS][Dap]-NH2) | 0.8 (≈ 2.09 µg/mL) | 0.8 (≈ 2.09 µg/mL) | 1.5 (≈ 3.92 µg/mL) | 0.8 (≈ 2.09 µg/mL) | 0.8 (≈ 2.09 µg/mL) | 0.4 (≈ 1.05 µg/mL) | 0.8 (≈ 2.09 µg/mL) | – | –
